Experimental data published in PMC4955735 (Anesthesiology, 2016).
Like-named read-outs stand apart in the source and are kept apart here.

Legend:
[1] = test system: S.typhimurium TA 1537; test: Bacteria reverse mutation assay
[2] = test system: S.typhimurium TA 1535
[3] = test system: S.typhimurium TA 98; test: Bacteria reverse mutation assay
[4] = test system: S.typhimurium TA 100
[5] = test system: THP-1, HepG2 and HEK293 cell lines; test: In vitro cell assays; format: cell-based; conditions: 0.16 mM to 2.5 mM
[6] = humans; cited from earlier work
[7] = rodents; cited from earlier work
[8] = test system: rats; test: Escalating phenylephrine infusion during continuous ketamine infusion; format: in vivo, rat; conditions: phenylephrine 4 to 10 μg/kg/min during steady state shallow ketamine anesthesia; n=3

Nc1ccc2cc3ccccc3cc2c1 [2-AA, 2-Aminoanthracene, reference compound]
number of colonies, positive control ([1]; TA 1537, +S9, 10 μg 2-Aminoanthracene per plate): 2-AA 141 | number of colonies, positive control ([2]; TA 1535, +S9, 10 μg 2-Aminoanthracene per plate): 2-AA 91 | number of colonies, positive control ([3]; TA 98, +S9, 10 μg 2-Aminoanthracene per plate): 2-AA 1101 | number of colonies, positive control ([4]; TA 100, +S9, 10 μg 2-Aminoanthracene per plate): 2-AA 1307

COc1ccc2nc3cc(Cl)ccc3c(NCCCNCCCl)c2c1 [191-A, ICR 191 Acridine, reference compound]
number of colonies, positive control ([1]; TA 1537, −S9, 1 μg ICR 191 Acridine per plate): 191-A 250

COc1cccc2c1C(=O)c1c(O)c3c(c(O)c1C2=O)C[C@@](O)(C(C)=O)C[C@@H]3O[C@H]1C[C@H](N)[C@H](O)[C@H](C)O1 [D-myc, Daunomycin, reference compound]
number of colonies, positive control ([3]; TA 98, −S9, 6 μg Daunomycin per plate): D-myc 505

CC(O)COC[C@H]1O[C@@H]2O[C@H]3[C@H](O)[C@@H](O)[C@@H](O[C@H]4[C@H](O)[C@@H](O)[C@@H](O[C@H]5[C@H](O)[C@@H](O)[C@@H](O[C@H]6[C@H](O)[C@@H](O)[C@@H](O[C@H]7[C@H](O)[C@@H](O)[C@@H](O[C@H]8[C@H](O)[C@@H](O)[C@@H](O[C@H]1[C@H](O)[C@H]2O)O[C@@H]8COCC(C)O)O[C@@H]7COCC(C)O)O[C@@H]6COCC(C)O)O[C@@H]5COCC(C)O)O[C@@H]4COCC(C)O)O[C@@H]3COCC(C)O (stereo partly drawn) [HP-β-CD, hydroxypropyl-β-cyclodextrin]
toxicity in the same cell lines compared with calabadion 2 [5]: very comparable

[N-]=[N+]=[N-].[Na+] [SA, Sodium Azide, reference compound]
number of colonies, positive control ([2]; TA 1535, −S9, 1.5 μg Sodium Azide per plate): SA 446 | number of colonies, positive control ([4]; TA 100, −S9, 1.5 μg Sodium Azide per plate): SA 282

CC[C@H]1OC(=O)[C@H](C)[C@@H](O[C@H]2C[C@@](C)(OC)[C@@H](O)[C@H](C)O2)[C@H](C)[C@@H](O[C@@H]2O[C@H](C)C[C@H](N(C)C)[C@H]2O)[C@](C)(O)C[C@@H](C)C(=O)[C@H](C)[C@@H](O)[C@]1(C)O [erythromycin]
toxicity in the same cell lines compared with calabadion 2 [5]: very comparable

CCOC(=O)c1cncn1[C@H](C)c1ccccc1 [etomidate]
plasma concentration at awakening [6]: 280 ng/mL | plasma concentration at maintenance of sedation [6]: 300 to 600 ng/mL | plasma concentration at awakening [7]: 440 ng/mL

CNC1(c2ccccc2Cl)CCCCC1=O (stereo not drawn) [ketamine]
plasma concentration at awakening [6]: 1000 ng/mL | plasma concentration at maintenance of sedation [6]: 2000 to 3000 ng/mL | plasma concentration at awakening [7]: 5000 ng/mL

CNC[C@H](O)c1cccc(O)c1 [phenylephrine]
effect on EEG power [8]: without effects on EEG power | effect on MAP [8]: significant MAP increases
